Reference: the NIST ThermoML archive (doi:10.1021/je020196d)
± gives the expanded uncertainty stated by the source.

Key:
[1] = activity coefficient (dimensionless); of the first substance listed, at infinite dilution; xn = mol fraction of the nth substance listed; conditions: Liquid, x1 = 0
[2] = refractive index (Na D-line) (dimensionless); conditions: 293.15 K; 101.33 kPa; Liquid; Standard Abbe refractometry
[3] = 293.15 K; 101.33 kPa; Liquid

CCc1ccccc1 [ethylbenzene] + OCCOCCOCCO
activity coefficient ([1]; 323.15 K, Chromatography): 10.9 ± 0.5
activity coefficient ([1]; 333.15 K, Chromatography): 10.3 ± 0.47
activity coefficient ([1]; 343.15 K, Chromatography): 9.73 ± 0.45
activity coefficient ([1]; 353.15 K, Chromatography): 9.1 ± 0.42
activity coefficient ([1]; 363.15 K, Chromatography): 8.72 ± 0.4
activity coefficient ([1]; 373.1 K, Chromatography): 8.39 ± 0.38
activity coefficient ([1]; 383.15 K, Chromatography): 7.94 ± 0.36
activity coefficient ([1]; 393.15 K, Chromatography): 7.72 ± 0.35

CCCCCCC [heptane]
refractive index [2]: 1.3878 ± 0.0007
mass density [3]: 683.5 ± 5 kg/m3

CCCCCCCCCC [decane] + OCCOCCOCCOCCO
activity coefficient ([1]; 333.15 K, Chromatography): 123 ± 5.8
activity coefficient ([1]; 353.15 K, Chromatography): 87.8 ± 4.1
activity coefficient ([1]; 363.15 K, Chromatography): 75.1 ± 3.5
activity coefficient ([1]; 373.1 K, Chromatography): 64.4 ± 3
activity coefficient ([1]; 383.15 K, Chromatography): 55.2 ± 2.6
activity coefficient ([1]; 393.15 K, Chromatography): 51.3 ± 2.4
activity coefficient ([1]; 403.15 K, Chromatography): 42.9 ± 2

Cc1ccccc1 [toluene] + OCCOCCOCCO
activity coefficient ([1]; 323.15 K, Chromatography): 7.11 ± 0.33
activity coefficient ([1]; 333.15 K, Chromatography): 6.8 ± 0.31
activity coefficient ([1]; 343.15 K, Chromatography): 6.51 ± 0.3
activity coefficient ([1]; 353.15 K, Chromatography): 6.25 ± 0.29
activity coefficient ([1]; 363.15 K, Chromatography): 5.99 ± 0.27
activity coefficient ([1]; 373.1 K, Chromatography): 5.85 ± 0.27
activity coefficient ([1]; 383.15 K, Chromatography): 5.56 ± 0.25
activity coefficient ([1]; 393.15 K, Chromatography): 5.51 ± 0.25

c1ccccc1 [benzene] + OCCOCCOCCOCCO
activity coefficient ([1]; 333.15 K, Chromatography): 2.99 ± 0.14
activity coefficient ([1]; 353.15 K, Chromatography): 2.73 ± 0.12
activity coefficient ([1]; 363.15 K, Chromatography): 2.65 ± 0.12
activity coefficient ([1]; 373.1 K, Chromatography): 2.5 ± 0.11
activity coefficient ([1]; 383.15 K, Chromatography): 2.41 ± 0.11
activity coefficient ([1]; 393.15 K, Chromatography): 2.37 ± 0.11
activity coefficient ([1]; 403.15 K, Chromatography): 2.27 ± 0.1

CCCCCCCC [octane] + OCCOCCOCCOCCO
activity coefficient ([1]; 333.15 K): 68.1 ± 6.4
activity coefficient ([1]; 353.15 K): 49.5 ± 4.6
activity coefficient ([1]; 363.15 K): 43.2 ± 4
activity coefficient ([1]; 373.1 K): 37.5 ± 3.5
activity coefficient ([1]; 383.15 K): 32.4 ± 3
activity coefficient ([1]; 393.15 K): 31.4 ± 2.9
activity coefficient ([1]; 403.15 K): 25.8 ± 2.4

CCCCCCCCCC [decane]
refractive index [2]: 1.4113 ± 0.0007
mass density [3]: 730.2 ± 5 kg/m3

c1ccccc1 [benzene] + OCCOCCOCCO
activity coefficient ([1]; 323.15 K, Chromatography): 4.62 ± 0.21
activity coefficient ([1]; 333.15 K, Chromatography): 4.38 ± 0.2
activity coefficient ([1]; 343.15 K, Chromatography): 4.26 ± 0.19
activity coefficient ([1]; 353.15 K, Chromatography): 4.1 ± 0.19
activity coefficient ([1]; 363.15 K, Chromatography): 3.97 ± 0.18
activity coefficient ([1]; 373.1 K, Chromatography): 3.92 ± 0.18
activity coefficient ([1]; 383.15 K, Chromatography): 3.82 ± 0.17
activity coefficient ([1]; 393.15 K, Chromatography): 3.75 ± 0.17

CCCCCCCCCC [decane] + OCCOCCOCCO
activity coefficient ([1]; 323.15 K, Chromatography): 252 ± 12
activity coefficient ([1]; 333.15 K, Chromatography): 219 ± 10
activity coefficient ([1]; 343.15 K, Chromatography): 196 ± 9.3
activity coefficient ([1]; 353.15 K, Chromatography): 162 ± 7.6
activity coefficient ([1]; 363.15 K, Chromatography): 141 ± 6.6
activity coefficient ([1]; 373.1 K, Chromatography): 125 ± 5.9
activity coefficient ([1]; 383.15 K, Chromatography): 107 ± 5
activity coefficient ([1]; 393.15 K, Chromatography): 95.6 ± 4.5
